Assay results published in ChEMBL document CHEMBL5346930, “Discovery of novel N-benzylarylamide-dithiocarbamate based derivatives as dual inhibitors of tubulin polymerization and LSD1 that inhibit gastric cancers” (Eur J Med Chem, 2023).
pIC50: −log10 of the molar value. Activity calls are given as the source filed them. The rule behind the calls is not given here.

How the values were obtained:
[1] = tested on: MGC-803; assay: cells; conditions: Homo sapiens, MGC-803, 48 h
Description: Antiproliferative activity against human MGC-803 cells assessed as inhibition of cell growth incubated for 48 hrs by MTT assay

[2] = tested on: HCT-116; assay: cells; conditions: Homo sapiens, HCT-116, 48 h
Description: Antiproliferative activity against human HCT-116 cells assessed as inhibition of cell growth incubated for 48 hrs by MTT assay

[3] = tested on: KYSE-450; assay: cells; conditions: Homo sapiens, KYSE-450, 48 h
Description: Antiproliferative activity against human KYSE-450 cells assessed as inhibition of cell growth incubated for 48 hrs by MTT assay

[4] = tested on: MGC-803; assay: Antitumor activity against human MGC-803 cells xenografted in BALB/c nude mouse assessed as tumor growth inhibition at 25 mg/kg/day, ip administered every day for 21 days; assay type: functional, organism-based; conditions: time 21.0 day
[5] = tested on: MGC-803; assay: Antitumor activity against human MGC-803 cells xenografted in BALB/c nude mouse assessed as reduction in tumor weight at 25 mg/kg/day, ip administered every day for 21 days; assay type: functional, organism-based; conditions: time 21.0 day
[6] = tested on: MGC-803; assay: Antitumor activity against human MGC-803 cells xenografted in BALB/c nude mouse assessed as reduction in tumor volume at 25 mg/kg/day, ip administered every day for 21 days; assay type: functional, organism-based; conditions: time 21.0 day
[7] = molecular target: Lysine-specific histone demethylase 1A (Homo sapiens, UniProt O60341); assay: Inhibition of recombinant LSD1 (unknown origin) using H3K4me2 peptide as substrate preincubated for 10 mins followed by substrate addition and measured after 30 mins by amplex red based fluorescence microplate reader analysis

| Structure (SMILES) | pIC50 [1] | pIC50 [2] | pIC50 [3] | Activity [4] | Activity [5] | Activity [6] | pIC50 [7] |
| --- | --- | --- | --- | --- | --- | --- | --- |
| COc1ccc(CN(C(=O)CSC(=S)N2CCC(c3ccccc3)CC2)c2cc(OC)c(OC)c(OC)c2)cc1O | 6.47 | 6.77 | 6.42 |  |  |  |  |
| COc1ccc(N2CCN(C(=S)SCC(=O)N(Cc3ccc(OC)c(O)c3)c3cc(OC)c(OC)c(OC)c3)CC2)cc1 | 7.35 | 7.23 | 7.17 |  |  |  |  |
| COc1ccc(CN(C(=O)CSC(=S)N2CCN(c3ccc(O)cc3)CC2)c2cc(OC)c(OC)c(OC)c2)cc1O | 7.11 | 7.00 | 7.07 |  |  |  |  |
| COc1ccc(CN(C(=O)CSC(=S)N2CCN(C(C)=O)CC2)c2cc(OC)c(OC)c(OC)c2)cc1O | 6.34 |  | 6.47 |  |  |  |  |
| COc1ccc(CN(C(=O)CSC(=S)N2CCN(c3ccccc3OC)CC2)c2cc(OC)c(OC)c(OC)c2)cc1O | 6.92 | 6.62 | 6.49 |  |  |  |  |
| COC(=O)C1CCN(C(=S)SCC(=O)N(Cc2ccc(OC)c(O)c2)c2cc(OC)c(OC)c(OC)c2)CC1 | 6.51 | 6.64 | 6.55 |  |  |  |  |
| COc1ccc(/C=C\c2cc(OC)c(OC)c(OC)c2)cc1O |  |  |  | Active | Active | Active |  |
| COc1ccc(CN(C(=O)CSC(=S)N2CCN(c3ccc(Br)cc3)CC2)c2cc(OC)c(OC)c(OC)c2)cc1O | 7.57 | 7.29 | 7.44 |  |  |  |  |
| COc1ccc(CN(C(=O)CSC(=S)N2CCCC(C)C2)c2cc(OC)c(OC)c(OC)c2)cc1O (stereo not given) | 6.32 | 6.19 | 6.28 |  |  |  |  |
| NC1CCC(N[C@@H]2C[C@H]2c2ccccc2)CC1 (stereo not given in full) | < 4.70 | < 4.70 | < 4.70 |  |  |  |  |
| COc1ccc(CN(C(=O)CSC(=S)N2CCN(C(=O)OC(C)(C)C)CC2)c2cc(OC)c(OC)c(OC)c2)cc1O | 7.08 | 6.66 | 7.11 |  |  |  | 5.57 |
| COc1ccc(CN(C(=O)CSC(=S)N2CCN(c3ccc(Cl)cc3)CC2)c2cc(OC)c(OC)c(OC)c2)cc1O | 7.42 | 7.23 | 7.35 |  |  |  |  |
| COc1ccc(CN(C(=O)CSC(=S)N2CCC(OC)CC2)c2cc(OC)c(OC)c(OC)c2)cc1O | 5.90 | 6.22 | 6.05 |  |  |  |  |
| CCCCN1CCN(C(=S)SCC(=O)N(Cc2ccc(OC)c(O)c2)c2cc(OC)c(OC)c(OC)c2)CC1 | 7.52 | 7.01 | 7.14 |  |  |  |  |
| COc1ccc(CN(C(=O)CSC(=S)N2CCN(c3ccccc3)CC2)c2cc(OC)c(OC)c(OC)c2)cc1O | 7.21 | 7.11 | 7.28 |  |  |  |  |
| CCOC(=O)C1CCN(C(=S)SCC(=O)N(Cc2ccc(OC)c(O)c2)c2cc(OC)c(OC)c(OC)c2)CC1 | 6.15 | 6.16 | 6.17 |  |  |  |  |
| CCN1CCN(C(=S)SCC(=O)N(Cc2ccc(OC)c(O)c2)c2cc(OC)c(OC)c(OC)c2)CC1 | 6.60 |  | 6.51 |  |  |  |  |
| COc1ccc(CN(C(=O)CSC(=S)N2CCN(C(C)(C)C)CC2)c2cc(OC)c(OC)c(OC)c2)cc1O | 6.37 | 6.21 | 6.15 |  |  |  |  |
| COc1ccc(CN(C(=O)CSC(=S)N2CCN(C3CC3)CC2)c2cc(OC)c(OC)c(OC)c2)cc1O | 6.92 | 6.32 | 6.68 |  |  |  |  |

| Structure (SMILES) | pIC50 [1] | pIC50 [2] | pIC50 [3] | Activity [4] | Activity [5] | Activity [6] | pIC50 [7] |
| --- | --- | --- | --- | --- | --- | --- | --- |
| Cc1ccc(Cn2cc(CSC(=S)N3CCN(C(=O)OC(C)(C)C)CC3)nn2)cc1 | 5.55 | 4.89 | < 4.70 |  |  |  |  |
| COc1ccc(CN(C(=O)CSC(=S)N2CCN(c3ccc([N+](=O)[O-])cc3)CC2)c2cc(OC)c(OC)c(OC)c2)cc1O | 7.27 | 7.17 | 7.14 |  |  |  |  |
| COC(=O)N1CCN(C(=S)SCC(=O)N(Cc2ccc(OC)c(O)c2)c2cc(OC)c(OC)c(OC)c2)CC1 | 6.85 | 6.80 | 6.80 |  |  |  |  |
| COc1cc2c(c(OC)c1OC)-c1ccc(OC)c(=O)cc1[C@@H](NC(C)=O)CC2 [COLCHICINE] | 7.25 | 7.11 | 7.15 |  |  |  |  |
| COc1ccc(CN(C(=O)CSC(=S)N2CCC(C)CC2)c2cc(OC)c(OC)c(OC)c2)cc1O | 6.42 | 6.05 | 6.07 |  |  |  |  |
| COc1ccc(CN(C(=O)CSC(=S)N2CCN(C)CC2)c2cc(OC)c(OC)c(OC)c2)cc1O | 6.57 | 6.09 | 6.12 |  |  |  |  |
| COc1ccc(CN(C(=O)CSC(=S)N2CCN(c3ccc(C#N)cc3)CC2)c2cc(OC)c(OC)c(OC)c2)cc1O | 7.59 | 7.10 | 7.43 |  |  |  |  |
| CCOC(=O)N1CCN(C(=S)SCC(=O)N(Cc2ccc(OC)c(O)c2)c2cc(OC)c(OC)c(OC)c2)CC1 | 7.10 | 7.05 | 7.16 |  |  |  |  |
| COc1ccc(CN(C(=O)CSC(=S)N2CCC(O)CC2)c2cc(OC)c(OC)c(OC)c2)cc1O | 6.25 | 6.10 | 6.34 |  |  |  |  |
| COc1cccc(N2CCN(C(=S)SCC(=O)N(Cc3ccc(OC)c(O)c3)c3cc(OC)c(OC)c(OC)c3)CC2)c1 | 7.12 | 6.82 | 7.23 |  |  |  |  |
| COc1ccc(CN(C(=O)CSC(=S)N2CCN(CCO)CC2)c2cc(OC)c(OC)c(OC)c2)cc1O | 6.27 | 6.28 | 6.31 |  |  |  |  |
| COc1ccc(CN(C(=O)CSC(=S)N2CCN(S(C)(=O)=O)CC2)c2cc(OC)c(OC)c(OC)c2)cc1O | 6.64 | 6.30 | 6.37 |  |  |  |  |
| COc1ccc(CN(C(=O)CSC(=S)N2CCN(c3ccc(F)cc3)CC2)c2cc(OC)c(OC)c(OC)c2)cc1O | 7.41 | 7.34 | 7.17 |  |  |  |  |
| C/C=C/C(=O)N(Cc1ccc(OC)c(O)c1)c1cc(OC)c(OC)c(OC)c1 | 7.55 | 7.27 | 7.21 |  |  |  |  |
| COc1ccc(CN(C(=O)CSC(=S)N2CCN(C=O)CC2)c2cc(OC)c(OC)c(OC)c2)cc1O | 6.72 | 6.92 | 6.68 |  |  |  |  |
| COc1ccc(CN(C(=O)CSC(=S)N2CCC(C(=O)OC(C)(C)C)CC2)c2cc(OC)c(OC)c(OC)c2)cc1O | 6.74 | 6.96 | 6.70 |  |  |  |  |
| COc1ccc(CN(C(=O)CSC(=S)N2CCN(C(C)C)CC2)c2cc(OC)c(OC)c(OC)c2)cc1O | 7.00 | 6.80 | 6.77 |  |  |  |  |
| COc1ccc(CN(C(=O)CSC(=S)N2CCN(C(=O)C3CC3)CC2)c2cc(OC)c(OC)c(OC)c2)cc1O | 6.92 | 7.00 | 6.70 |  |  |  |  |
